Results taken from patent US11078153B2, “2-difluoro substituted 4-aminocyclopentanecarboxylic acids as inhibitors of gamma-aminobutyric acid aminotransferase and human ornithine aminotransferase” (Northwestern University, priority 2019, dated 2021).
“Also recorded” adds a separate entry of the source. Read-outs that look alike come from different tables or passages of the source. Values belong to the compound of their own block, whether it stands above or below them.

How the values were obtained:
GABA-AT [1] = assay: Concentration dependent assay of GABA-AT; type: biochemical
OAT [2] = target: T1, OAT (Homo sapiens, UniProt P04181); assay: OAT fluoride release assay; type: biochemical; conditions: without α-ketoglutarate, FIG. 3
T1 sequence (P04181 36-439 limits assumed): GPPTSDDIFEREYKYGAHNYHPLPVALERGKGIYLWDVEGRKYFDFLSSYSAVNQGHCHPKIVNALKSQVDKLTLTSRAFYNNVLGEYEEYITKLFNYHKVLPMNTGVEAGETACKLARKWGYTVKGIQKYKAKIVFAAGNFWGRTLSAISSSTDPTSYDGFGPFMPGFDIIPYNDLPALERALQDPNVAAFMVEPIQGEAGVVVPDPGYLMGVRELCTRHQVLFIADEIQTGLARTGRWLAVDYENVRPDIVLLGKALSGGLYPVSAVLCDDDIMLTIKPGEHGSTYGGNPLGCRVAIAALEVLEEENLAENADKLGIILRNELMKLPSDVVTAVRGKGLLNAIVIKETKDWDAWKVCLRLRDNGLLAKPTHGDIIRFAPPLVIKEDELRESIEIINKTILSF
Description: An OAT fluoride release assay was performed with NAL-1-47 and it was calculated that there were 13.02 fluoride ions released per enzyme active site (FIG. 3).

OAT [3] = target: T1, OAT; assay: Time-dependent assay with OAT (kinact/KI); type: biochemical
From the text: In summary, enantiomerically pure 1 was synthesized from an enantiomerically pure Vince lactam in six steps.

OAT [4] = target: T1, OAT; assay: Partition ratio assay of OAT; type: biochemical; conditions: with α-KG, FIG. 5
Description: A partition ratio assay of OAT with NAL-1-47 was performed to determine the ratio of the compound acting as a substrate to the compound inactivating the enzyme.

OAT [5] = target: T1, OAT; assay: OAT inhibition / inactivation assay (concentration-dependent assay with OAT); type: biochemical
OAT [6] = target: T1, OAT; assay: Dialysis assay of NAL-1-47 with OAT; type: biochemical; conditions: for Percent Activity Remaining of OAT with NAL-1-47: pre-incubated overnight at 37° C.
Description: NAL-1-47 was incubated with OAT then dialyzed to determine whether it functions as a reversible inhibitor or an irreversible inactivator of OAT. NAL-1-47 was pre-incubated overnight at 37° C. with OAT. The remaining activity of the OAT was determined for 20, 50, 80, and 120 equiv of NAL-1-47 per OAT active site. The inactivated OAT was then dialyzed for 144 h and using a control, it was confirmed that the control OAT retained the majority of its activity after this dialysis.

GABA-AT [7] = assay: Time-dependent assay with GABA-AT; type: biochemical
[8] = long-term administration; cited from earlier work
[9] = cocaine addiction in humans, 9-week double-blind trial; cited from earlier work
[10] = listed as S, S enantiomer, hydrochloride

- fluoride ions released per enzyme active site (OAT [2]): 13.02
- kinact/KI (OAT [3]; OAT, Example 2, FIG. 4, read-out: kinact/KI (converted)): 1.13 M⁻¹ s⁻¹
- kinact/KI (OAT [3]; time-dependent assay with OAT, Example 1): 2.67 M⁻¹ s⁻¹
- partition ratio (OAT [4]): 54.5
- inhibition / inactivation of OAT (in words) (OAT [5]; [10]): inactivate OAT
- Percent Activity Remaining of OAT with NAL-1-47 (OAT [6]; 20 equiv per OAT active site): 67.3%
- Percent Activity Remaining of OAT with NAL-1-47 after 144 h Dialysis (OAT [6]; 20 equiv): 63.3%
- Percent Activity Remaining of OAT with NAL-1-47 (OAT [6]; 50 equiv per OAT active site): 52.5%
- Percent Activity Remaining of OAT with NAL-1-47 after 144 h Dialysis (OAT [6]; 50 equiv): 38.5%
- Percent Activity Remaining of OAT with NAL-1-47 (OAT [6]; 80 equiv per OAT active site): 31.7%
- Percent Activity Remaining of OAT with NAL-1-47 after 144 h Dialysis (OAT [6]; 80 equiv): 27.6%
- Percent Activity Remaining of OAT with NAL-1-47 (OAT [6]; 120 equiv per OAT active site): 21.1%
- Percent Activity Remaining of OAT with NAL-1-47 after 144 h Dialysis (OAT [6]; 120 equiv): 15.1%
SMILES: Cl.N[C@H]1C[C@@H](C(=O)O)C(F)(F)C1 [NAL-1-47, (1S,4S)-4-amino-2,2-difluorocyclopentanecarboxylic acid hydrochloride]
- Activity Remaining (GABA-AT) (GABA-AT [1]; Conc. 0.0781 mM): 110.6%
- Activity Remaining (GABA-AT) (GABA-AT [1]; Conc. 0.1563 mM): 100.7%
- Activity Remaining (GABA-AT) (GABA-AT [1]; Conc. 0.3125 mM): 91.0%
- Activity Remaining (GABA-AT) (GABA-AT [1]; Conc. 0.625 mM): 93.6%
- Activity Remaining (GABA-AT) (GABA-AT [1]; Conc. 1.25 mM): 93.4%
- Activity Remaining (GABA-AT) (GABA-AT [1]; Conc. 2.5 mM): 88.3%
- Activity Remaining (GABA-AT) (GABA-AT [1]; Conc. 5 mM): 67.8%
- Activity Remaining (GABA-AT) (GABA-AT [1]; Conc. 10 mM): 44.7%
- inhibition of GABA-AT (in words) (GABA-AT [1]; hydrochloride): does not inhibit GABA-AT potently; also recorded: neither compound potently inhibited GABA-AT
- inhibition of GABA-AT (in words) (GABA-AT [1]; listed as 1, hydrochloride): inhibitory activity against the enzymes GABA-AT and OAT
- inhibition of GABA-AT (in words) (GABA-AT [1]; [10]): only very weakly inhibit GABA-AT
- inhibition / inactivation of OAT (in words) (OAT [5]; hydrochloride): shown to inactivate OAT; also recorded: found to inhibit OAT potently
- inhibition / inactivation of OAT (in words) (OAT [5]; listed as 1, hydrochloride): inhibitory activity against the enzymes GABA-AT and OAT; also recorded: inhibit OAT more potently than the racemic version of this compound; also recorded: determined as an inactivator; also recorded: selectively inactivate OAT and was more potent than the racemic compound
- inhibitory activity against GABA-AT in time-dependent assays (in words) (GABA-AT [7]): no significant inhibitory activity

SMILES: N[C@@H]1C[C@H](C(=O)O)C(F)(F)C1 [NAL-1-73]
- inhibition of GABA-AT (in words) (GABA-AT [1]): neither compound potently inhibited GABA-AT
- Activity Remaining (GABA-AT) (GABA-AT [1]; Conc. 0.0781 mM): 100.9%
- Activity Remaining (GABA-AT) (GABA-AT [1]; Conc. 0.1563 mM): 94.5%
- Activity Remaining (GABA-AT) (GABA-AT [1]; Conc. 0.3125 mM): 95.1%
- Activity Remaining (GABA-AT) (GABA-AT [1]; Conc. 0.625 mM): 103.5%
- Activity Remaining (GABA-AT) (GABA-AT [1]; Conc. 1.25 mM): 88.8%
- Activity Remaining (GABA-AT) (GABA-AT [1]; Conc. 2.5 mM): 85.2%
- Activity Remaining (GABA-AT) (GABA-AT [1]; Conc. 5 mM): 70.3%
- Activity Remaining (GABA-AT) (GABA-AT [1]; Conc. 10 mM): 55.3%
- inhibition of GABA-AT (in words) (GABA-AT [1]; listed as R, R enantiomer): did not inhibit either OAT or GABA-AT potently
- inhibition / inactivation of OAT (in words) (OAT [5]; listed as R, R enantiomer): did not inhibit either OAT or GABA-AT potently
- inhibitory activity against GABA-AT in time-dependent assays (in words) (GABA-AT [7]): no significant inhibitory activity

SMILES: C=CC(N)CCC(=O)O (centres unmarked) [Vigabatrin]
- permanent vision loss, share of epilepsy patients [8]: 25-40%
- patients achieving abstinence [9]: up to 28%
